Values quoted from earlier work as cited in patent US20080213192A1, “AEROSOL LOTION FORMULATIONS” (Schering-Plough Healthcare Products, Inc., priority 2006, published 2008).

Details: Raval and Parrott, J. Pharm. Sci. 1967

COC(=O)c1ccc(O)cc1 [methylparaben]
pH above which methylparaben hydrolyzes: > 6
